Results published in US20240108636A1, “COMPOSITIONS FOR TREATMENT OF NEURODEGENERATIVE CONDITIONS” (BIOVIE INC., priority 2021, published 2024).
Counter-ions that a name gives are not always drawn.

How the values were obtained:
[1] = system: MPTP model of Parkinson's disease; test: Immobility score, MPTP model of Parkinson's disease in marmoset monkeys; type: in vivo, marmoset monkeys (Callithrix jacchus); conditions: for Mean immobility score: 0-4 scale
Description: (§1) The 1-methyl-4-phenyl-1,2,3,6-tetrahydropyridine (MPTP) model that was used is capable of reducing striatal dopamine levels to 5% of normal controls. The MPTP model was used to produce Parkinson's-like disease symptoms in three sequential independent cohorts of six marmosets monkeys (Callithrix jacchus, approximately 0.3-0.5 kg, 2-5 years) which were then observed for 3 weeks to confirm the absence of parkinsonian behavior and motor abnormalities. A single dose of 17-EAT or amantadine was administered at the beginning of Week 4 to confirm the absence of behavioral side effects. All subjects received subcutaneous injections of 1-2 mg/kg MPTP on Days 3, 4, and 5 of Week 5 and Day 1 and 3 of Week 6 for a total of 6.5 mg/kg MPTP and were observed through the end of Week 7 without further treatment, then randomized for treatment.
Oral administration of treatment of vehicle, amantadine, or 17-EAT formulated in acacia syrup began at the start of Week 8. Vehicle controls received acacia syrup only. Amantadine HCl (Sigma Aldrich, A1260-SG) was administered daily at a dose of 1 mg/kg. 17-EAT was administered daily at a dose of 30 mg/kg. In Weeks 8 and 9 test compound activity against parkinsonian behavior was observed several times daily for effects on clinical signs (lack of grooming, apathy, immobility, muscle rigidity, and tremor activity) and given an immobility score on a 0-4 scale, with 0 being normal and 4 being the most severe score. Ratings were performed by study personnel blind to treatment.

[2] = system: levodopa-induced dyskinesia (LID); test: Abnormal involuntary movements score (AIMS), levodopa-induced dyskinesia in MPTP marmosets; type: in vivo, marmoset monkeys (Callithrix jacchus); conditions: for AIMS: Week 12, in combination with levodopa 10 mg/kg, items scored 0-4; for Abnormal involuntary movements scores (AIMS) in combination with levodopa: Week 12, levodopa 5, 7.5, 10, 12.5 or 25 mg/kg, FIG. 2
Experimental: (§2) The severity of LID was measured by abnormal involuntary movements score (AIMS) adapted to the primate PD model. The items include assessment of extremity and trunk movements, facial expression, and movement of the lips, peri-oral area, tongue, and jaw. These symptoms were scored on a scale from 0 (normal), 1 ([…]), 2 (mild), 3 (moderate) to 4 (severe). Measurement of parkinsonian behaviors continued as previously described. […] The subjects were exsanguinated under deep anaesthesia with Alphaxan (18 mg/kg i.m.). Immediately thereafter, the subjects were euthanized with EUTHASOL (pentobarbital natrium, i.c.). The brain of each subject was removed and frozen for immunohistochemical analyses. SNpc was analyzed for the presence of DA positive neurons with tyrosine hydroxylase immune reactive (TH-IR) staining.

[3] = system: tyrosine hydroxylase positive neurons; test: Surviving tyrosine hydroxylase positive neurons in substantia nigra of MPTP marmosets; type: in vivo, marmoset monkeys (Callithrix jacchus); conditions: Week 14, substantia nigra; FIG. 3
Experimental: as §2
In Week 14, all subjects were sacrificed and tissue samples from the substantia nigra were evaluated to measure the number of surviving tyrosine hydroxylase positive neurons. The increase in number of surviving TH+ neurons for subjects treated with amantadine and 17-EAT was 40% and 75%, as shown in FIG. 3.

[4] = Body weight of MPTP marmosets; type: in vivo, marmoset monkeys (Callithrix jacchus); conditions: FIG. 4
Description: as §1
Oral administration of treatment of vehicle, amantadine, or 17-EAT formulated in acacia syrup began at the start of Week 8. Vehicle controls received acacia syrup only. Amantadine HCl (Sigma Aldrich, A1260-SG) was administered daily at a dose of 1 mg/kg. 17-EAT was administered daily at a dose of 30 mg/kg. […]

[5] = system: TNF, IL-1b, IL-6, and other inflammatory cytokines; conditions: cited from earlier work
[6] = system: rodent models of systemic inflammation and neuroinflammation; conditions: cited from earlier work
[7] = Week 7, prior to treatment, 0 normal, 4 most severe
[8] = Week 8, monotherapy, oral daily (amantadine 1 mg/kg, 17-EAT 30 mg/kg)
[9] = Week 9, monotherapy, oral daily (amantadine 1 mg/kg, 17-EAT 30 mg/kg)

| SMILES | Mean immobility score [1, 7] | Mean immobility score [1, 8] | Mean immobility score [1, 9] | AIMS [2] | Abnormal involuntary movements scores (AIMS) in combination with levodopa [2] | Increase in number of surviving TH+ neurons [3] [%] | Mean immobility scores in combination with levodopa ([1]; combination with levodopa 5, 7.5, 10, 12.5 or 25 mg/kg, FIG. 1) | Mean body weight [4] | Expression of TNF, IL-1b, IL-6, and other inflammatory cytokines [5] | Activity in rodent models of neurological disease ([6]; Parkinson's disease, experimental autoimmune encephalomyelitis, optic neuritis, glaucoma) | Activity in rodent models of systemic inflammation ([6]; type 2 diabetes, COPD, rheumatoid arthritis) | LID expression ([2]; levodopa 12.5 mg/kg BID) |
| --- | --- | --- | --- | --- | --- | --- | --- | --- | --- | --- | --- | --- |
| NC12CC3CC(CC(C3)C1)C2 [Amantadine, Amantadine HCl] | 2.59 | 2.74 | 2.72 | 4.5 | improved compared to monotherapy | 40 |  |  |  |  |  |  |
| C#C[C@]1(O)CC[C@H]2[C@@H]3[C@@H](O)C=C4C[C@@H](O)CC[C@]4(C)[C@H]3CC[C@@]21C [Compound 17-EAT, 17-ethynyl-10R, 13S-dimethyl 2,3,4,7, 8R, 9S, 10, 11, 12, 13, 14S, 15, 16, 17-hexadecahydro-1H-cyclopenta[a]phenanthrene-3R, 7R, 17S-triol] | 2.72 | 2.26 | 2.10 | 2.1 | improved compared to monotherapy | 75 | improved compared to 17-EAT monotherapy | maintained a higher mean body weight compared to either vehicle or amantadine | decreases expression | anti-neuroinflammatory or neuroprotective activity | active in rodent models of systemic inflammation |  |
| N[C@@H](Cc1ccc(O)c(O)c1)C(=O)O [Levodopa, L-3,4-dihydroxyphenylalanine] |  |  |  |  |  |  |  |  |  |  |  | induced LID expression in all subjects |
